Results reported in patent publication US10633397B2, “Substituted polycyclic pyridone derivatives and prodrugs thereof” (priority 2015, dated 2020).

Key:
in vivo = settings: oral vs intravenous administration, mice or SD rats, read-out: bioavailability (BA)
Experimental: Materials and Methods for Experiments to Evaluate Oral Absorption
(1) Experimental animals: mice or SD rats were used.
(2) Rearing condition: mice or SD rats were allowed free access to solid feed and sterilized tap water.
(3) Setting of dosage and grouping: Oral administration and intravenous administration were performed with the predetermined dosage. Grouping was set as below. (Dosage was changed per compound)
Oral administration 1 to 30 mg/kg (n=2 to 3)
Intravenous administration 0.5 to 10 mg/kg (n=2 to 3)
(4) Preparation of administration solutions: Oral administration was performed as solution or suspension. Intravenous administration was performed after solubilization.
(5) Routes of administration: Oral administration was performed mandatory into the stomach by oral sonde. […]
(6) Evaluation items: Blood was collected serially and concentration of a compound of the present invention in plasma was measured by LC/MS/MS.
(7) Statistical analysis: About transition of concentration of a compound of the present invention in plasma, the area under the plasma concentration versus time curve (AUC) was calculated by non-linear least-squares method program, WinNonlin (a registered trademark), and bioavailability (BA) of a compound of the present invention was calculated from AUCs of the oral administration group and the intravenous administration group. […]

[1] = Plasma concentration after oral administration of prodrug Compound II-6; format: in vivo; settings: after oral administration of Compound II-6 to rat under non-fasting conditions, all plasma samples
Source text: FIG. 1 is a result of measuring the plasma concentration of compound III-2, after oral administration of prodrug Compound II-6, the parent compound of which is Compound III-2, to rat under non-fasting conditions.
FIG. 2 is a result of measuring the plasma concentration of compound II-6, after oral administration of prodrug Compound II-6, the parent compound of which is Compound III-2, to rat under non-fasting conditions.
FIGS. 1 and 2 show a result of measuring the plasma concentration of Compound III-2 and Compound II-6 after oral administration of prodrug Compound II-6, the parent compound of which is Compound III-2, to rat under non-fasting conditions.
Therefore, prodrug Compound II-6, the parent compound of which is Compound III-2 is found to have changed promptly to Compound III-2 in vivo after administration (see FIG. 2).

COC(=O)OCOc1c2n(ccc1=O)N([C@@H]1c3ccccc3SCc3c1ccc(F)c3F)[C@@H]1COCCN1C2=O [II-6]
bioavailability (in vivo): 14.9% | concentration of Compound II-6 in plasma [1]: a determination limit or less
